Data: patent US20100029620A1, “SUBSTITUTED TRIAZOLINE, TETRAZOLONE AND IMIDAZOLONE DERIVATIVES FOR USE AS A MEDICINE” (JANSSEN PHARMACEUTICA N.V., priority 2004, published 2010)

Experiments:
[1] = target: T1, human adrenergic-α2C receptor (Homo sapiens, UniProt P18825); assay: Radioligand binding experiment for α2C-adrenoceptor ([3H]-raulwolscine competition, CHO cell membranes); settings: [3H]raulwolscine 1 nM, membranes of CHO cells transfected with human α2C receptor; read-out: pIC50 α2C (converted)
T1 construct: expressed in transfected cells; membrane preparation
T1 sequence (P18825 1-462): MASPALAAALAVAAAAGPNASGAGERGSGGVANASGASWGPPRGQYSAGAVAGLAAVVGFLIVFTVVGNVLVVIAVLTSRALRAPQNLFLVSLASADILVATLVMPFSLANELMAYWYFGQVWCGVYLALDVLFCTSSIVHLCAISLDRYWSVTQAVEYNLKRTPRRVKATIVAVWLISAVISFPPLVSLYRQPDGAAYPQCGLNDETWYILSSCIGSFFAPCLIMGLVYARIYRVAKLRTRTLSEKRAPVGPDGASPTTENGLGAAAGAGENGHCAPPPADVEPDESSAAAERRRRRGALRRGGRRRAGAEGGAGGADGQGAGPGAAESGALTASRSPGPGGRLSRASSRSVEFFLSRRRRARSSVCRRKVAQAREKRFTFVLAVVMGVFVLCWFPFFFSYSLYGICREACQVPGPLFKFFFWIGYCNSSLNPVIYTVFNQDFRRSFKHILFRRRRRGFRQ
Method: (§1) The interaction of the compounds of Formula (I) with α2C-adrenoceptor receptors was assessed in in vitro radioligand binding experiments. In general, a low concentration of a radioligand with a high binding affinity for a particular receptor or transporter is incubated with a sample of a tissue preparation enriched in a particular receptor or transporter or with a preparation of cells expressing cloned human receptors in a buffered medium. During the incubation, the radioligand binds to the receptor or transporter. When equilibrium of binding is reached, the receptor bound radioactivity is separated from the non-bound radioactivity, and the receptor- or transporter-bound activity is counted. The interaction of the test compounds with the receptor is assessed in competition binding experiments. Various concentrations of the test compound are added to the incubation mixture containing the receptor- or transporter preparation and the radioligand. The test compound in proportion to its binding affinity and its concentration inhibits binding of the radioligand. The radioligand used for […] receptor binding was [^3H]-raulwolscine.
(§2) CHO cells, stabile transfected with human adrenergic-α2A-, -α2B or α2C receptor cDNA, were cultured in Dulbecco's Modified Eagle's Medium (DMEM)/Nutrient mixture Ham's F12 (ratio 1:1)(Gibco, Gent-Belgium) supplemented with 10% heat inactivated fetal calf serum (Life Technologies, Merelbeke-Belgium) and antibiotics (100 IU/ml penicillin G, 100 μg/ml streptomycin sulphate, 110 μg/ml pyruvic acid and 100 μg/ml L-glutamine). One day before collection, cells were induced with 5 mM sodiumbutyrate. Upon 80-90% of confluence, cells were scraped in phosphate buffered saline without Ca^2+ and Mg^2+ and collected by centrifugation at 1500×g for 10 min. The cells were homogenised in Tris-HCl 50 mM using an Ultraturrax homogenizer and centrifuged for 10 min at 23,500×g. The pellet was washed once by resuspension and rehomogenization and the final pellet was resuspended in Tris-HCl, divided in 1 ml aliquots and stored at −70° C.
(§3) Membranes were thawed and re-homogenized in incubation buffer (glycylglycine 25 mM, pH 8.0). In a total volume of 500 μl, 2-10 μg protein was incubated with [^3H]raulwolscine (NET-722) (New England Nuclear, USA) (1 nM final concentration) with or without competitor for 60 min at 25° C. followed by rapid filtration over GF/B filter using a Filtermate196 harvester (Packard, Meriden, Conn.). Filters were rinsed extensively with ice-cold rinsing buffer (Tris-HCl 50 mM pH 7.4). Filter-bound radioactivity was determined by scintillation counting in a Topcount (Packard, Meriden, CT) and results were expressed as counts per minute (cpm). Non-specific binding was determined in the presence of 1 μM oxymetazoline for hα2A- and hα2B receptors and 1 μM spiroxatrine for hα2C receptors.
(§4) Data from assays in the presence of compound were calculated as a percentage of total binding measured in the absence of test compound. Inhibition curves, plotting percent of total binding versus the log value of the concentration of the test compound, were automatically generated, and sigmoidal inhibition curves were fitted using non-linear regression. The pIC50 values of test compounds were derived from individual curves.

[2] = target: T2, human adrenergic-α2A receptor (Homo sapiens, UniProt P08913); assay: Radioligand binding experiment for α2A-adrenoceptor ([3H]-raulwolscine competition, CHO cell membranes); settings: [3H]raulwolscine 1 nM, membranes of CHO cells transfected with human α2A receptor; read-out: pIC50 α2A (converted)
T2 construct: expressed in transfected cells; membrane preparation
T2 sequence (P08913 1-465): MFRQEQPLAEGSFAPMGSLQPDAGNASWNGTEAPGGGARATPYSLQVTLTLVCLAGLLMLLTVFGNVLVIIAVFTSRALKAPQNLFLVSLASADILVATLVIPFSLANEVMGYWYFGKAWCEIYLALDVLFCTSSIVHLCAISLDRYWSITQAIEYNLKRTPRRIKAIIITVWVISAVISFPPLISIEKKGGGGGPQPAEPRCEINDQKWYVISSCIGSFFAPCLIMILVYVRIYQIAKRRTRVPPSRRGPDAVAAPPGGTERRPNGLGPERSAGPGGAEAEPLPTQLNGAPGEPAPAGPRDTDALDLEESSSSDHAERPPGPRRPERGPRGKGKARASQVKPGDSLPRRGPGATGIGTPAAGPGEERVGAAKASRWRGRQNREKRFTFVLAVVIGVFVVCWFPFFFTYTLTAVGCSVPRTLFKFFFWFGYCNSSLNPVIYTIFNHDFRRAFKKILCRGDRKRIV
Method: as §1, §2, §3, §4

[3] = target: T3, human adrenergic-α2B receptor (Homo sapiens, UniProt P18089); assay: Radioligand binding experiment for α2B-adrenoceptor ([3H]-raulwolscine competition, CHO cell membranes); settings: [3H]raulwolscine 1 nM, membranes of CHO cells transfected with human α2B receptor; for IC50: read-out: pIC50 α2B (converted)
T3 construct: expressed in transfected cells; membrane preparation
T3 sequence (P18089 1-450): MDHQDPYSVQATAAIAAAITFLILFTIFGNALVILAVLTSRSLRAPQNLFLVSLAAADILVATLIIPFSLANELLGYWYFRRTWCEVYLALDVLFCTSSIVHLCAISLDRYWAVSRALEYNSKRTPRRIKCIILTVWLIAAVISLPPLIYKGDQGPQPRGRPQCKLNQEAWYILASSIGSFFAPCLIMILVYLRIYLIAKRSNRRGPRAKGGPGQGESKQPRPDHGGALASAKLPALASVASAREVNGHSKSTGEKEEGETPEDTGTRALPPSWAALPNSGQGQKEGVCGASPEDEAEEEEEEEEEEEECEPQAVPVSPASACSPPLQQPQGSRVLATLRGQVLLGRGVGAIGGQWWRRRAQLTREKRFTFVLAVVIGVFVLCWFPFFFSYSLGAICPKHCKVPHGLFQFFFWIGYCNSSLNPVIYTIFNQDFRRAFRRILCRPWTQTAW
Method: as §1, §2, §3, §4

Structure (SMILES) | IC50 [1] | IC50 [2] | IC50 [3] | pIC50 α2B [3]
CC(NCCOc1ccccc1)C(C)n1ncn(-c2ccc(N3CCN(c4ccc(O)cc4)CC3)cc2)c1=O (single isomer, unassigned) [compound 7] | 0.00794 µM | 0.126 µM | 0.126 µM | –
C/C(=C\c1ccccc1)CN1CCC(Cn2ncn(-c3ccc(NCCN(C)C)cc3)c2=O)CC1 [compound 39] | 0.01 µM | 0.0631 µM | 0.00794 µM | –
O=c1n(-c2ccc(CN3CCc4ccccc4C3)cc2)cnn1CCNCCOc1ccccc1 [compound 27] | 0.001 µM | 0.0251 µM | 0.0794 µM | –
CN(CCNc1ccc(-n2cnn(CC3CCN(CCOc4ccccc4)CC3)c2=O)cc1)CC1CCCCC1 [compound 42] | 0.001 µM | 0.0251 µM | 0.00794 µM | –
CN1CCCN(Cc2ccc(-n3cnn(CCNCCOc4ccccc4)c3=O)cc2)CC1 [compound 13] | 0.001 µM | 0.0631 µM | 0.0631 µM | –
O=c1n(-c2ccc(CN3CCC(O)CC3)cc2)cnn1CCNCCOc1ccccc1 [compound 18] | 0.00158 µM | 0.0501 µM | 0.126 µM | –
O=c1n(CCNCCOc2ccccc2)cnn1CCN1CCCCC1 [compound 44] | 0.01 µM | 0.126 µM | 3.98 µM | –
O=c1n(-c2ccc(CN3CCOCC3)cc2)cnn1CCNCCOc1ccccc1 [compound 23] | 0.00316 µM | 0.158 µM | 0.251 µM | –
CN(CCNc1ccc(-n2cnn(CC3CCN(CCOc4ccccc4)CC3)c2=O)cc1)Cc1ccccc1 [compound 43] | 0.00158 µM | 0.0251 µM | 0.00631 µM | –
O=c1n(CCNCCOc2ccccc2)cnn1-c1ccc(CN2CCOCC2)cc1 [compound 45] | 0.02 µM | 0.316 µM | 0.2 µM | –
O=c1n(-c2ccc(N3CCC(N4CCCC4)CC3)cc2)cnn1CCNCCOc1ccccc1 [compound 20] | 0.00398 µM | 0.1 µM | 0.1 µM | –
CCOC(=O)C1CCN(Cc2ccc(-n3cnn(CCNCCOc4ccccc4)c3=O)cc2)CC1 [compound 19] | 0.00316 µM | 0.0631 µM | 0.251 µM | –
C/C(=C\c1ccccc1)CN1CCC(CCn2ncn(-c3ccc(NCCN(C)C)cc3)c2=O)CC1 [compound 41] | 0.00158 µM | 0.00631 µM | 0.00126 µM | –
C/C(=C\c1ccccc1)CN1CCC(n2ncn(-c3ccc(CN)cc3)c2=O)CC1 [compound 34] | 0.01 µM | 0.0398 µM | 0.0501 µM | –
C/C(=C\c1ccccc1)CN1CCC(n2cnn(-c3ccc(NCCN(C)C)cc3)c2=O)CC1 [compound 31] | 0.0126 µM | 0.0501 µM | 0.0251 µM | –

Second part, the molecule after the results:

IC50 [1] | IC50 [2] | IC50 [3] | pIC50 α2B [3] | Structure (SMILES)
0.00158 µM | 0.158 µM | 0.0398 µM | – | O=c1n(-c2ccc(CN3CCOCC3)cc2)cnn1CC1CCN(CCOc2ccccc2)CC1 [compound 73]
0.00794 µM | 0.158 µM | 0.0251 µM | – | O=c1n(-c2ccc(N3CCOCC3)cc2)cnn1CC1CCN(CCOc2ccccc2)CC1 [compound 72]
0.0158 µM | 0.158 µM | 0.0316 µM | – | O=c1n(-c2ccc(N3CCN(Cc4ccccc4)CC3)cc2)cnn1CC1CCN(CCOc2ccccc2)CC1 [compound 54]
0.001 µM | 0.0126 µM | 0.0158 µM | – | O=C1c2ccccc2C(=O)N1CCCn1ncn(CC2CCN(CCOc3ccccc3)CC2)c1=O [compound 82]
0.00126 µM | 0.0316 µM | – | 7.5 | CN(C)CCNc1ccc(-n2cnn(CCNCCOc3ccccc3)c2=O)cc1 [compound 87]
0.00794 µM | 0.631 µM | 0.251 µM | – | CS(=O)(=O)N1CCc2cc(-n3cnn(CCNCCOc4ccccc4)c3=O)ccc2C1 [compound 101]
0.001 µM | 0.0398 µM | 0.0316 µM | – | CN(C)CCNc1ccc(-n2cnn(CCNCCOc3ccccc3)c2=O)cc1 [compound 86]
0.00126 µM | 0.0794 µM | 0.02 µM | – | O=c1n(-c2ccc(CN3CCC(O)CC3)cc2)cnn1CC1CCN(CCOc2ccccc2)CC1 [compound 65]
0.0126 µM | 0.251 µM | 0.0158 µM | – | O=c1n(-c2ccc(NCCN3CCOCC3)cc2)cnn1CC1CCN(CCOc2ccccc2)CC1 [compound 50]
0.000631 µM | 0.02 µM | 0.0501 µM | – | O=c1n(-c2ccc(CNCCc3ccccc3)cc2)cnn1CCNCCOc1ccccc1 [compound 90]
0.00501 µM | 0.0316 µM | 0.0794 µM | – | O=c1n(-c2ccc(CNCc3ccc(F)cc3)cc2)cnn1CCNCCOc1ccccc1 [compound 91]
0.00126 µM | 0.0501 µM | 0.126 µM | – | O=c1n(-c2ccc(CNCC3CCCO3)cc2)cnn1CCNCCOc1ccccc1 (stereo not drawn) [compound 93]
0.00398 µM | 0.0794 µM | 0.0398 µM | – | O=C(Cn1cnn(CC2CCN(CCOc3ccccc3)CC2)c1=O)Nc1ccc(F)cc1 [compound 47]
0.00126 µM | 0.0631 µM | 0.01 µM | – | CN1CCCN(Cc2ccc(-n3cnn(CC4CCN(CCOc5ccccc5)CC4)c3=O)cc2)CC1 [compound 61]
0.00631 µM | 0.126 µM | 0.126 µM | – | NCc1ccc(Cn2cnn(CCNCCOc3ccccc3)c2=O)cc1 [compound 85]
0.002 µM | 0.251 µM | 0.126 µM | – | O=c1n(-c2ccc(NCc3ccc(F)cc3)cc2)cnn1CCNCCOc1ccccc1 [compound 89]
0.02 µM | 0.501 µM | 0.251 µM | – | O=c1n(-c2ccc3c(c2)CCN(CC2CCCCC2)C3)cnn1CCNCCOc1ccccc1 [compound 98]
